Consider eight compounds from publication PMC6323127 (Saudi Pharmaceutical Journal : SPJ, 2018).

pIC50: −log10 of the molar value. Values after ≈ are worked out from the molar mass of the structure shown.

The test system of data set [1] is CYP1A1/2. Conditions: in vitro; ref Ayrton et al., 1987; cited from earlier work.
Data set [2] concerns the target T1, CYP1A2 (Homo sapiens, UniProt P05177).
T1 sequence (P05177 1-516): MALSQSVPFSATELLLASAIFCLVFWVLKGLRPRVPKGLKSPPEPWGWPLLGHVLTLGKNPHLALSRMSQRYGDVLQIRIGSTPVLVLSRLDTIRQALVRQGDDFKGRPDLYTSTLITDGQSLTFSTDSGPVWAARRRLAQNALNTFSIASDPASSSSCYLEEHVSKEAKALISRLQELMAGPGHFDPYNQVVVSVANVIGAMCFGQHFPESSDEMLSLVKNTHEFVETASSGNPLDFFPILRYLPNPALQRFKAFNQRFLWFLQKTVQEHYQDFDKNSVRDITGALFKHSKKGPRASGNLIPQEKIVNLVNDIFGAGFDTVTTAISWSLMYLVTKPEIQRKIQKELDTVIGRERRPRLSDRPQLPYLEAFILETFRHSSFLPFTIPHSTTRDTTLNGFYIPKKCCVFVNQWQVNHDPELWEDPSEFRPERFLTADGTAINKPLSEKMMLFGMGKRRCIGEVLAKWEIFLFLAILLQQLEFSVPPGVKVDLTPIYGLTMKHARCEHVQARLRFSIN
Particulars: for relative potency (AEM IC50)/(other anthraquinone IC50), CYP1A2-mediated caffeine demethylation: AEM as reference chemical; for inhibitor strength toward CYP1A2 activity (in words): human liver microsomes.

The target in data set [3] is T2, CYP3A4 (Homo sapiens, UniProt P08684). Conditions: for relative potency (AEM IC50)/(other anthraquinone IC50), CYP3A4-mediated erythromycin demethylation: AEM as reference chemical; for inhibitor strength toward CYP3A4 activity (in words): human liver microsomes.
The target in data set [4] is T1, CYP1A2. The data set can be described thus: biochemical.
The target in data set [5] is T2, CYP3A4. Put plainly: biochemical.
Data set [6] has as its target T1, CYP1A2. The data set can be described thus: in vitro. Conditions: microsomes, pH 7.4.

T2 sequence (P08684 whole entry): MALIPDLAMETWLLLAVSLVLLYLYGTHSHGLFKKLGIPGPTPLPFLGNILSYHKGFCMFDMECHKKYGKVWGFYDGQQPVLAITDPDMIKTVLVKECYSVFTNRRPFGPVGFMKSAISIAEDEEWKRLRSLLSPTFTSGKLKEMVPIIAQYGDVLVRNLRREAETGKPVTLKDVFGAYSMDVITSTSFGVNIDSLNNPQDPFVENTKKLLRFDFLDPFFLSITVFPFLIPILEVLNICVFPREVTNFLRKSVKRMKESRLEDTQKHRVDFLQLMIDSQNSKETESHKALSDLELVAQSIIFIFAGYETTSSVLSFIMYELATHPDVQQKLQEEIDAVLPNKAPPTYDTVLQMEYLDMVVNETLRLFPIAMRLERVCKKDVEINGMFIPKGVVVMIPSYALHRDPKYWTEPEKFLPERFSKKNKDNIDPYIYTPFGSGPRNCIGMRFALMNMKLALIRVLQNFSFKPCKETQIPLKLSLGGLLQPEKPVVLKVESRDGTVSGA

Take `O=C1c2ccc(O)cc2C(=O)c2ccc(O)cc21` [2,6-dihydroxyanthraquinone]: in data set [1], the “inhibitor strength toward rat liver microsomal CYP1A1/2 activity (in words)” value is on record as “potent inhibitor”.

As to `O=C(O)c1cc(O)c2c(c1)C(=O)c1cccc(O)c1C2=O` [Rhein], in data set [2], the “relative potency (AEM IC50)/(other anthraquinone IC50), CYP1A2-mediated caffeine demethylation” value worked out at 0.68 unitless and the “inhibitor strength toward CYP1A2 activity (in words)” value is reported as “potent inhibitors”. In addition, in data set [3], the “relative potency (AEM IC50)/(other anthraquinone IC50), CYP3A4-mediated erythromycin demethylation” value is 0.08 unitless and the “inhibitor strength toward CYP3A4 activity (in words)” value is listed as “weak inhibitors”. Further, the pIC50 in data set [4] is 5.66. For the same compound, the negative logarithm of the IC50 (pIC50) in data set [5] was 4.01.

Consider `COc1cc(O)c2c(c1)C(=O)c1cc(C)cc(O)c1C2=O` [Physcion], for which, in data set [2], the “relative potency (AEM IC50)/(other anthraquinone IC50), CYP1A2-mediated caffeine demethylation” value is listed as 0.98 unitless and the “inhibitor strength toward CYP1A2 activity (in words)” value is on record as “potent inhibitors”. The “relative potency (AEM IC50)/(other anthraquinone IC50), CYP3A4-mediated erythromycin demethylation” value in data set [3] is given as under 0.04 unitless. This compound came in with an IC50 in data set [6] of 0.43 µg/mL (≈ 1.51 µM). The compound further gave a pIC50 in data set [5] of under 3.66.

For `O=C(O)c1cc(O)c2c(c1)[C@H]([C@H]1c3cc(C(=O)O)cc(O)c3C(=O)c3c(O[C@@H]4O[C@H](CO)[C@@H](O)[C@H](O)[C@H]4O)cccc31)c1cccc(O[C@@H]3O[C@H](CO)[C@@H](O)[C@H](O)[C@H]3O)c1C2=O` [Sennoside A], the “inhibitor strength toward CYP1A2 activity (in words)” value in data set [2] was “weak inhibitor”. The “inhibitor strength toward CYP3A4 activity (in words)” value in data set [3] is on record as “weak inhibitor”. The compound further gave a negative-log IC50 (pIC50) in data set [4] of under 3.81.

In the case of `O=C1c2cccc(O)c2C(=O)c2c(O)cc(CO)cc21` [Aloe-emodin], in data set [2], the “relative potency (AEM IC50)/(other anthraquinone IC50), CYP1A2-mediated caffeine demethylation” value amounted to 1.00 unitless and the “inhibitor strength toward CYP1A2 activity (in words)” value is listed as “potent inhibitors”. Also, the “slope of CYP1A2 inhibition-log concentration (or dilution volume) curve” value in data set [2] (Fig. 5) is reported as 1.74. Besides, in data set [3], the “relative potency (AEM IC50)/(other anthraquinone IC50), CYP3A4-mediated erythromycin demethylation” value is reported as 1.00 unitless and the “inhibitor strength toward CYP3A4 activity (in words)” value was “moderate inhibitors”. Further, in data set [4], the negative-log IC50 (pIC50) is 5.81. The compound also showed a negative-log IC50 (pIC50) in data set [5] of 5.08.

`Cc1cc(O)c2c(c1)C(=O)c1cccc(O)c1C2=O` [Chrysophanol]: the “inhibitor strength toward CYP1A2 activity (in words)” value in data set [2] is on record as “potent inhibitors”. In data set [4], the pIC50 was 5.76.

`O=C(O)c1cc(O)c2c(c1)[C@@H]([C@H]1c3cc(C(=O)O)cc(O)c3C(=O)c3c(O[C@@H]4O[C@H](CO)[C@@H](O)[C@H](O)[C@H]4O)cccc31)c1cccc(O[C@@H]3O[C@H](CO)[C@@H](O)[C@H](O)[C@H]3O)c1C2=O` [Sennoside B]: the “inhibitor strength toward CYP1A2 activity (in words)” value in data set [2] was “moderate inhibitor”. The “inhibitor strength toward CYP3A4 activity (in words)” value in data set [3] is reported as “moderate inhibitor”. The pIC50 in data set [4] was 4.48.

For `Cc1cc(O)c2c(c1)C(=O)c1cc(O)cc(O)c1C2=O` [Emodin], in data set [2], the “relative potency (AEM IC50)/(other anthraquinone IC50), CYP1A2-mediated caffeine demethylation” value worked out at 0.02 unitless and the “inhibitor strength toward CYP1A2 activity (in words)” value is “weak CYP1A2 inhibitor”. Moreover, in data set [3], the “relative potency (AEM IC50)/(other anthraquinone IC50), CYP3A4-mediated erythromycin demethylation” value was found to be 0.55 unitless and the “inhibitor strength toward CYP3A4 activity (in words)” value is reported as “moderate inhibitors”. In data set [4], this compound gave a negative logarithm of the IC50 (pIC50) of 4.17. This compound also had a pIC50 in data set [5] of 4.82.
